Measured values from patent publication US12630547B2, “RAS protein degraders, pharmaceutical compositions thereof, and their therapeutic applications” (BioTheryX, Inc., priority 2019, dated 2026).

What was measured:
Assay type in all cases: cell-based
MOLM-13 cells = assay: Cell viability assay (CELLTITER-GLO), MOLM-13 cells; conditions: Homo sapiens, MOLM-13, 72 h; Table 2; compound at 10 μM, 3 days; read-out: Effect on MOLM-13 cell viability (% DMSO)
Outline: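 Viability, as % of DMSO control, was read by CellTiter-Glo luminescence after a 3-day compound exposure (single dose of 10 μM or 1 μM) at 37 °C. Cells plated at 4,000/well in RPMI 1640 with 10% FBS. Results reported as categories A <10%, B 10–<25%, C 25–<50%, D ≥50%.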

H358 cells = assay: Cell viability assay (CELLTITER-GLO), H358 cells; conditions: Table 4; 3 days
Outline: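 Luminescent ATP read-out (CellTiter-Glo) after 3-day incubation at 37 °C of H358 cells plated at 4,000/well in RPMI 1640 with 10% FBS. Values are either IC50 bins (A ≤1 μM through D >10 μM) or % of DMSO viability at 10 μM or 1 μM, bins A <10% through D ≥50%.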

H23 cells = assay: Cell viability assay (CELLTITER-GLO), H23 cells; conditions: Table 4; 3 days
Outline: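 Luminescent CellTiter-Glo readout after 3-day compound treatment (37° C, 5% CO2) of H23 cells plated at 4,000 cells/well in RPMI 1640 plus 10% FBS, DMSO as control. IC50 values given as categorical ranges.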

Structure (SMILES) | viability at 10 µM (MOLM-13 cells) [%] | Inhibition of H358 cells, IC50 (class) (H358 cells) | Inhibition of H23 cells, IC50 (class) (H23 cells)
C=CC(=O)N1CCN(c2nc(OC[C@@H]3CCCN3C)nc3c(F)c(-c4c(F)cccc4OCCCCCCCN4CCC(c5cc(F)cc6c5CN(C5CCC(=O)NC5=O)C6=O)CC4)c(Cl)cc23)CC1 (stereo partly drawn) [Compound 88, 3-(4-(1-(7-(2-(4-(4-Acryloylpiperazin-1-yl)-6-chloro-8-fluoro-2-(((S)-1-methylpyrrolidin-2-yl)methoxy)quinazolin-7-yl)-3-fluorophenoxy)heptyl)piperidin-4-yl)-6-fluoro-1-oxoisoindolin-2-yl)piperidine-2,6-dione] | < 10 | A′ | B′
CCC(=O)N1CCN(c2nc(OC[C@@H]3CCCN3C)nc3c(F)c(-c4c(F)cccc4OCCCCCCCN4CCC(c5cc(F)cc6c5CN(C5CCC(=O)NC5=O)C6=O)CC4)c(Cl)cc23)CC1 (stereo partly drawn) [Compound 89, 3-(4-(1-(7-(2-(6-Chloro-8-fluoro-2-(((S)-1-methylpyrrolidin-2-yl)methoxy)-4-(4-propionylpiperazin-1-yl)quinazolin-7-yl)-3-fluorophenoxy)heptyl)piperidin-4-yl)-6-fluoro-1-oxoisoindolin-2-yl)piperidine-2,6-dione] | < 10 | B′ | B′
C=CC(=O)N1CCN(c2ncnc3c(F)c(-c4cc(OCCCCCCCN5CCC(c6cc(F)cc7c6CN(C6CCC(=O)NC6=O)C7=O)CC5)ccc4F)c(Cl)cc23)CC1 (stereo not drawn) [Compound 90, 3-(4-(1-(7-(3-(4-(4-Acryloylpiperazin-1-yl)-6-chloro-8-fluoroquinazolin-7-yl)-4-fluorophenoxy)heptyl)piperidin-4-yl)-6-fluoro-1-oxoisoindolin-2-yl)piperidine-2,6-dione] | < 10 | B′ | B′
CCC(=O)N1CCN(c2ncnc3c(F)c(-c4cc(OCCCCCCCN5CCC(c6cc(F)cc7c6CN(C6CCC(=O)NC6=O)C7=O)CC5)ccc4F)c(Cl)cc23)CC1 (stereo not drawn) [Compound 91, 3-(4-(1-(7-(3-(6-Chloro-8-fluoro-4-(4-propionylpiperazin-1-yl)quinazolin-7-yl)-4-fluorophenoxy)heptyl)piperidin-4-yl)-6-fluoro-1-oxoisoindolin-2-yl)piperidine-2,6-dione] | < 10 | B′ | B′
CCC(=O)N1CCN(c2ncnc3c(F)c(-c4c(F)cccc4OCCc4cn(CCN5CCC(c6cc(F)cc7c6CN(C6CCC(=O)NC6=O)C7=O)CC5)nn4)c(Cl)cc23)CC1 (stereo not drawn) [Compound 92, 3-(4-(1-(2-(4-(2-(2-(6-Chloro-8-fluoro-4-(4-propionylpiperazin-1-yl)quinazolin-7-yl)-3-fluorophenoxy)ethyl)-1H-1,2,3-triazol-1-yl)ethyl)piperidin-4-yl)-6-fluoro-1-oxoisoindolin-2-yl)piperidine-2,6-dione] | ≥ 50 | C′ | D′
CCC(=O)N1CCN(c2ncnc3c(F)c(-c4c(F)cccc4OCCCCCCCN4CCC(c5cc6c(cc5F)C(=O)N(C5CCC(=O)NC5=O)C6)CC4)c(Cl)cc23)CC1 (stereo not drawn) [Compound 93, 3-(5-(1-(7-(2-(6-Chloro-8-fluoro-4-(4-propionylpiperazin-1-yl)quinazolin-7-yl)-3-fluorophenoxy)heptyl)piperidin-4-yl)-6-fluoro-1-oxoisoindolin-2-yl)piperidine-2,6-dione] | < 10 | B′ | B′
C=CC(=O)N1CCN(c2ncnc3c(F)c(-c4c(F)cccc4OCCCCCCCN4CCC(c5cc6c(cc5F)C(=O)N(C5CCC(=O)NC5=O)C6)CC4)c(Cl)cc23)CC1 (stereo not drawn) [Compound 94, 3-(5-(1-(7-(2-(4-(4-Acryloylpiperazin-1-yl)-6-chloro-8-fluoroquinazolin-7-yl)-3-fluorophenoxy)heptyl)piperidin-4-yl)-6-fluoro-1-oxoisoindolin-2-yl)piperidine-2,6-dione] | < 10 | B′ | B′
CCC(=O)Oc1cccc(F)c1-c1c(Cl)cc2c3c(cnc2c1F)N(CCCCCCCN1CCC(c2cc(F)cc4c2CN(C2CCC(=O)NC2=O)C4=O)CC1)C(=O)[C@H]1CN(C(=O)CC)[C@H](C)CN31 (stereo partly drawn) [Compound 95, 2-((2R,4aR)-11-Chloro-6-(7-(4-(2-(2,6-dioxopiperidin-3-yl)-6-fluoro-1-oxoisoindolin-4-yl)piperidin-1-yl)heptyl)-9-fluoro-2-methyl-5-oxo-3-propionyl-2,3,4,4a,5,6-hexahydro-1H-pyrazino[1′,2′:4,5]pyrazino[2,3-c]quinolin-10-yl)-3-fluorophenyl propionate] | < 10 | B′ | B′
C/C=C(\Cl)C(=O)N1CCN(c2ncnc3c(F)c(-c4c(F)cccc4OCCCCCCCN4CCC(c5cc(F)cc6c5CN(C5CCC(=O)NC5=O)C6=O)CC4)c(Cl)cc23)CC1 (stereo not drawn) [Compound 96, (Z)-3-(4-(1-(7-(2-(6-Chloro-4-(4-(2-chlorobut-2-enoyl)piperazin-1-yl)-8-fluoroquinazolin-7-yl)-3-fluorophenoxy)heptyl)piperidin-4-yl)-6-fluoro-1-oxoisoindolin-2-yl)piperidine-2,6-dione] | < 10 | B′ | B′
CC(C)/C=C(\Cl)C(=O)N1CCN(c2ncnc3c(F)c(-c4c(F)cccc4OCCCCCCCN4CCC(c5cc(F)cc6c5CN(C5CCC(=O)NC5=O)C6=O)CC4)c(Cl)cc23)CC1 (stereo not drawn) [Compound 97, (Z)-3-(4-(1-(7-(2-(6-Chloro-4-(4-(2-chloro-4-methylpent-2-enoyl)piperazin-1-yl)-8-fluoroquinazolin-7-yl)-3-fluorophenoxy)heptyl)piperidin-4-yl)-6-fluoro-1-oxoisoindolin-2-yl)piperidine-2,6-dione] | < 10 | B′ | B′
CC/C=C(\Cl)C(=O)N1CCN(c2ncnc3c(F)c(-c4c(F)cccc4OCCCCCCCN4CCC(c5cc(F)cc6c5CN(C5CCC(=O)NC5=O)C6=O)CC4)c(Cl)cc23)CC1 (stereo not drawn) [Compound 98, (Z)-3-(4-(1-(7-(2-(6-Chloro-4-(4-(2-chloropent-2-enoyl)piperazin-1-yl)-8-fluoroquinazolin-7-yl)-3-fluorophenoxy)heptyl)piperidin-4-yl)-6-fluoro-1-oxoisoindolin-2-yl)piperidine-2,6-dione] | 25 to 50 | B′ | B′
CC(=O)N1CCN(c2ncnc3c(F)c(-c4c(F)cccc4OCCCCCCCN4CCC(c5cc(F)cc6c5CN(C5CCC(=O)NC5=O)C6=O)CC4)c(Cl)cc23)CC1 (stereo not drawn) [Compound 99, 3-(4-(1-(7-(2-(4-(4-Acetylpiperazin-1-yl)-6-chloro-8-fluoroquinazolin-7-yl)-3-fluorophenoxy)heptyl)piperidin-4-yl)-6-fluoro-1-oxoisoindolin-2-yl)piperidine-2,6-dione] | < 10 | B′ | B′
